Results: US12178837B2, “Composition for skin-whitening or preventing or improving skin wrinkles comprising green tea extract which has modified amounts of ingredients” (AMOREPACIFIC CORPORATION, priority 2019, dated 2024)

Test system: MMP-1 (matrix metalloproteinase-1)
Experiment: MMP-1 inhibition activity: ELISA of MMP-1 produced by aged human dermal fibroblasts
Assay type: cell-based
Conditions: EGCG + GCG total 3 μg/ml at the given weight ratio
Method: The evaluation on MMP-1 inhibition activity was conducted in order to verify the effects of the green tea extracts of Samples 1 and 2 of Example 1 in inhibiting the production of MMP-1, which is skin tissue breakdown enzyme, in human skin fibroblast of aged human skin and in inhibiting the production of MMP-1 according to the weight ratio of EGCG and GCG, and the amount of GCG. To be specific, the evaluation was conducted through the following steps.
Normal human dermal fibroblast (NHDF; Lonza, Switzerland) was cultured in a DMEM medium (Dulbecco's modified Eagle's Medium, Gibco 1210-0038) comprising 10% of fetal bovine serum, and the culturing was all performed in a 37° C., 5% CO2 culture medium. Cells that had 6-9 sub-culture frequencies were used as young cells, and aged dermal fibroblasts were obtained by sub-culturing 37 times in such a manner that the number of cells was calculated for every sub-culture and then ⅕ of the total number of cells were newly cultured. The aged dermal fibroblasts were treated with EGCG and GCG depending on the ratio of EGCG:GCG and the concentration of GCG, or treated with Sample 1 or Sample 2.
In order to verify the amount of MMP-1 produced, the enzyme-linked immunosorbent assay (ELISA) method was used (Amersham, USA). The culture medium of the cells treated with the samples at the step 1-1 was collected and the supernatant was isolated by centrifuging at 1000×g, and then the culture medium was put into a 96-well plate coated with an MMP-1 antibody, and then a secondary antibody (horse reddish peroxidase, HRP) was reacted at room temperature for 1 hour, and washed with 100 μL PBS. The amount of MMP-1 produced was confirmed by measuring absorbance at a 490 nm wavelength after reaction and confirming its degree of color formation using a TMB substrate solution (Pierce, USA), and the MMP-1 inhibition activity (%) was calculated using the following equation.
MMP-1 inhibition activity (%)=(O.D. of the group treated with the sample at 490 nm/O.D. of the group not treated with sample at 490 nm)×100

Molecule	MMP-1 inhibition activity (%) Processed after 24 hours	MMP-1 inhibition activity (%) Processed immediately
O=C(O[C@@H]1Cc2c(O)cc(O)cc2O[C@H]1c1cc(O)c(O)c(O)c1)c1cc(O)c(O)c(O)c1 [GCG, (−)-gallocatechin gallate]	10 ± 1.0%	55 ± 9.2%
(−)-epigallocatechin gallate [EGCG]	6 ± 1.0%	56 ± 9.7%
